# Source: US20100303758A1, “Novel Glucocorticoid Receptor Agonists” (priority 2009, published 2010)
# pEC50: −log10 of the molar value.
# Experiments:
# human GR = target: T1, human GR (Homo sapiens, UniProt P04150); test: GR agonist potency, MMTV-luciferase reporter in SW1353 cells; type: cell-based; conditions: human chondrosarcoma cell-line SW1353 stably transfected with MMTV-luciferase reporter; approx. 18 hours; data as percentage of 1 μM dexamethasone positive control
# T1 construct: SW1353 naturally expresses human GR; endogenous in cells; host or cells: human chondrosarcoma cell-line SW1353 stably transfected with an MMTV-luciferase reporter construct
# T1 sequence (P04150 1-777): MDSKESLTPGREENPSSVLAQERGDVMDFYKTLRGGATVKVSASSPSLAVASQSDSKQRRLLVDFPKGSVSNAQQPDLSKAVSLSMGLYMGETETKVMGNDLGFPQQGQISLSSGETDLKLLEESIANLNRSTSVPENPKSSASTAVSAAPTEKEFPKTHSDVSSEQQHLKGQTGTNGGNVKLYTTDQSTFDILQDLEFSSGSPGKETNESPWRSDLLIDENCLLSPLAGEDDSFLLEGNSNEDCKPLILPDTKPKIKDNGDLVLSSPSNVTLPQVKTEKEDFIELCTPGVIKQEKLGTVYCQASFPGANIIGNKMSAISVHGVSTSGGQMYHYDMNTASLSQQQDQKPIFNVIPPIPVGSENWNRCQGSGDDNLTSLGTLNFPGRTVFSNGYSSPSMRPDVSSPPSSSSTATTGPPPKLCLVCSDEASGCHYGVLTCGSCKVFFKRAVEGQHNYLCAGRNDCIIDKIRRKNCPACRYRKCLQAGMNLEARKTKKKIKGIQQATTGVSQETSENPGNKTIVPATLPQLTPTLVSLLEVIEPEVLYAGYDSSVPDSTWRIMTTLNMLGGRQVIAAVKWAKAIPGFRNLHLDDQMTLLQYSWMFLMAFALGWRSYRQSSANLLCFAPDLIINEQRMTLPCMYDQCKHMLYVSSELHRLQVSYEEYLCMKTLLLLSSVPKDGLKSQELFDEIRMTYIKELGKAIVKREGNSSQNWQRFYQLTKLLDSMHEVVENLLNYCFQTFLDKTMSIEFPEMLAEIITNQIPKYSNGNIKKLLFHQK
# Procedure: Glucococorticoid receptor (GR) agonist potency was determined in the human chondrosarcoma cell-line SW1353 stably transfected with an MMTV-luciferase reporter construct. SW1353 naturally expresses human GR, which on binding a glucocorticoid agonist activates glucocorticoid response elements within the MMTV promoter, driving expression of the luciferase gene.
# Frozen SW1353 cells were revived in DMEM medium, without sodium pyruvate or phenol red, supplemented with 2 mM L-glutamine, 1 μg/ml insulin, 2 mg/ml lactalbumin hydrosylate and 0.5 μg/ml ascorbate. Cells were seeded at approximately 5000 cells/well (35 μl/well) in 384-well clear bottom, tissue culture treated plates. Steroid dose-response dilutions were prepared in steroid diluent (PBS containing 2.5% (v/v) DMSO and 0.05% (v/v) pluronic detergent) and 5 μl added to each well. The volume was made up to 50 μl per well with steroid diluent. Positive control wells contained 1 μM dexamethasone. Plates were incubated for approximately 18 hours at 37° C. in an air/5% CO2 atmosphere in a humidified incubator before Britelite reagent (10 μl; Perkin-Elmer) was added to each well. Each plate was incubated for 2 minutes in the dark and luminescence quantified using a LJL Biosystems Analyst luminometer. Data for test compounds (expressed as percentage of the dexamethasone positive control) were used to construct dose response curves from which EC50 values were estimated.
# [1] = Inhibition of TNF-α release from LPS stimulated isolated human PBMC; type: cell-based; conditions: Homo sapiens, PBMC, read-out: IC50 (nM) for inhibition of TNF-α release
# Procedure: The anti-inflammatory activity of the compounds against human leukocytes in vitro was also evaluated by determining inhibition of tumour necrosis factor-α (TNF-α) release from lipopolysaccharide (LPS) stimulated isolated human peripheral mononuclear cells (PBMC).
# Peripheral venous blood from healthy, non-medicated donors was collected using ethylenediaminetetraacetic acid (EDTA) as the anti-coagulant. For PBMC preparation, samples of blood were diluted 1:1 with sterile phosphate buffered saline and then separated using ACCUSPIN™ System-Histopaque®-1077 tubes (Sigma-Aldrich, St Louis, Mo.), centrifuged at 400 g for 35 minutes. Buffy coat cells were removed into PBS, centrifuged at 200 g for 10 minutes and re-suspended in PBMC assay buffer (Hanks Balanced Salt Solution, 0.28% [w/v] 4-[2-hydroxyethyl]-1-piperazineethanesulfonic acid [HEPES], 0.01% [w/v] low-endotoxin bovine serum albumin [BSA]. A differential white cell count was performed and PBMC's diluted to 1×10^6 lymphocytes per ml in PBMC assay buffer.
# Test compounds were dissolved in DMSO and diluted in PBMC assay buffer (final DMSO concentration 1%) to cover an appropriate concentration range, e.g 0.001 nM to 10000 nM. Samples of test compound solution or vehicle (20 μl) were added into 96-well tissue culture treated plates (Corning) and PBMC (160 μl) added to each well. The assay mixtures were incubated at 37° C. for 1 h in a humidified incubator containing an atmosphere of air supplemented with 5% CO2 before adding LPS (20 μl of 100 ng/ml for PBMC). Plates were returned to the incubator for a further 18 hours, and then centrifuged before recovery of samples of supernatant. TNF-α in the samples was determined using an enzyme-linked immunosorbent assay (ELISA) (Invitrogen kit no CHC-1754; Invitrogen Carlsbad, Calif.) and following the manufacturers instructions. Dose response curves were constructed from which IC50 values were calculated.
SMILES,pEC50 (human GR),IC50 [1]
"C[C@]12C=CC(=O)C=C1CC[C@H]1[C@@H]3CC[C@](OC(=O)c4ccc(Oc5cccc(O)c5)cc4)(C(=O)OCC#N)[C@@]3(C)C[C@H](O)[C@@]12F [Example 17, cyanomethyl (11beta,17alpha)-9-fluoro-11-hydroxy-17-{[4-(3-hydroxyphenoxy)benzoyl]oxy}-3-oxoandrosta-1,4-diene-17-carboxylate]",7.42,0.157 nM
"C[C@]12C=CC(=O)C=C1CC[C@H]1[C@@H]3CC[C@](OC(=O)c4ccc(Sc5ccccc5)c(O)c4)(C(=O)OCC#N)[C@@]3(C)C[C@H](O)[C@@]12F [Example 19, cyanomethyl (11beta,17alpha)-9-fluoro-11-hydroxy-17-{[3-hydroxy-4-(phenylthio)benzoyl]oxy}-3-oxoandrosta-1,4-diene-17-carboxylate]",7.35,0.3 nM
"C[C@]12C=CC(=O)C=C1CC[C@H]1[C@@H]3CC[C@](OC(=O)c4ccc(Sc5ccc(O)c(Cl)c5)cc4)(C(=O)OCC#N)[C@@]3(C)C[C@H](O)[C@@]12F [Example 20, cyanomethyl (11beta,17alpha)-17-({4-[(3-chloro-4-hydroxyphenyl)thio]-benzoyl}oxy)-9-fluoro-11-hydroxy-3-oxoandrosta-1,4-diene-17-carboxylate]",7.41,0.29 nM
"C[C@]12C=CC(=O)C=C1CC[C@H]1[C@@H]3CC[C@](OC(=O)c4ccc(Oc5ccccc5)cc4O)(C(=O)OCC#N)[C@@]3(C)C[C@H](O)[C@@]12F [Example 21, cyanomethyl(11beta,17alpha)-9-fluoro-11-hydroxy-17-[(2-hydroxy-4-phenoxybenzoyl)oxy]-3-oxoandrosta-1,4-diene-17-carboxylate]",7.31,0.656 nM
"C[C@]12C=CC(=O)C=C1CC[C@H]1[C@@H]3CC[C@](OC(=O)c4ccc(Cc5ccccc5)cc4)(C(=O)SCF)[C@@]3(C)C[C@H](O)[C@@]12F [Example 22, (11beta,17alpha)-9-fluoro-17-{[(fluoromethyl)thio]carbonyl}-11-hydroxy-3-oxoandrosta-1,4-dien-17-yl 4-benzylbenzoate]",7.16,0.087 nM
"CSc1cccc(Sc2ccc(C(=O)O[C@]3(C(=O)SCF)CC[C@H]4[C@@H]5CCC6=CC(=O)C=C[C@]6(C)[C@@]5(F)[C@@H](O)C[C@@]43C)cc2)c1 [Example 23, (11beta,17alpha)-9-fluoro-17-{[(fluoromethyl)thio]carbonyl}-11-hydroxy-3-oxoandrosta-1,4-dien-17-yl 4-{[3-(methylthio)phenyl]thio}benzoate]",7.28,0.536 nM
"C[C@]12C=CC(=O)C=C1CC[C@H]1[C@@H]3CC[C@](OC(=O)c4ccc(Sc5ccccc5)cc4)(C(=O)SCF)[C@@]3(C)C[C@H](O)[C@@]12F [Example 24, (11beta,17alpha)-9-fluoro-17-{[(fluoromethyl)thio]carbonyl}-11-hydroxy-3-oxoandrosta-1,4-dien-17-yl 4-(phenylthio)benzoate]",7.59,0.117 nM
"C[C@]12C=CC(=O)C=C1CC[C@H]1[C@@H]3CC[C@](OC(=O)c4ccc(Oc5ccccc5)cc4)(C(=O)SCF)[C@@]3(C)C[C@H](O)[C@@]12F [Example 25, (11beta, 17alpha)-9-fluoro-17-{[(fluoromethyl)thio]carbonyl}-11-hydroxy-3-oxoandrosta-1,4-dien-17-yl 4-phenoxybenzoate]",7.70,0.026 nM
"C[C@]12C=CC(=O)C=C1CC[C@H]1[C@@H]3CC[C@](OC(=O)c4ccc(Oc5ccc(O)c(Cl)c5)cc4)(C(=O)SCF)[C@@]3(C)C[C@H](O)[C@@]12F [Example 26, (11beta, 17alpha)-9-fluoro-17-{[(fluoromethyl)thio]carbonyl}-11-hydroxy-3-oxoandrosta-1,4-dien-17-y1 4-(3-chloro-4-hydroxyphenoxy)-benzoate]",7.37,0.177 nM
"C[C@]12C=CC(=O)C=C1CC[C@H]1[C@@H]3CC[C@](OC(=O)c4ccc(Sc5ccc(O)c(Cl)c5)cc4)(C(=O)SCF)[C@@]3(C)C[C@H](O)[C@@]12F [Example 27, (11beta,17alpha)-9-fluoro-17-[((fluoromethyl)thio]carbonyl)-11-hydroxy-3-oxoandrosta-1,4-dien-17-yl 4-[(3-chloro-4-hydroxyphenyl)thio]benzoate]",7.36,0.326 nM
"C[C@]12C=CC(=O)C=C1CC[C@H]1[C@@H]3CC[C@](OC(=O)c4ccc(Sc5ccccc5)cc4)(C(=O)SCC#N)[C@@]3(C)C[C@H](O)[C@@]12F [Example 28, (11beta,17alpha)-17-{[(cyanomethyl)thio]carbonyl}-9-fluoro-11-hydroxy-3-oxoandrosta-1,4-dien-17-yl 4-(phenylthio)benzoate]",7.43,0.231 nM
"C[C@]12C=CC(=O)C=C1CC[C@H]1[C@@H]3CC[C@](OC(=O)c4ccc(Oc5ccccc5)cc4)(C(=O)SCC#N)[C@@]3(C)C[C@H](O)[C@@]12F [Example 29, (11beta,17alpha)-17-{[(cyanomethyl)-thio]carbonyl}-9-fluoro-11-hydroxy-3-oxoandrosta-1,4-dien-17-yl 4-phenoxybenzoate]",7.11,0.156 nM
"C[C@]12C=CC(=O)C=C1CC[C@H]1[C@@H]3CC[C@](OC(=O)c4ccc(Sc5ccccc5)cc4)(C(=O)SCCl)[C@@]3(C)C[C@H](O)[C@@]12F [Example 30, (11beta,17alpha)-17-{[(chloromethyl)thio]carbonyl}-9-fluoro-11-hydroxy-3-oxoandrosta-1,4-dien-17-yl 4-(phenylthio)benzoate]",7.69,0.256 nM
"C[C@]12C=CC(=O)C=C1[C@@H](F)C[C@H]1[C@@H]3CC[C@](OC(=O)c4ccc(OCc5ccccc5)cc4)(C(=O)CO)[C@@]3(C)C[C@H](O)[C@@]12F [Example 31, (6alpha,11beta)-6,9-difluoro-11,21-dihydroxy-3,20-dioxopregna-1,4-dien-17-yl 4-(benzyloxy)benzoate]",6.99,0.152 nM
"C[C@]12C=CC(=O)C=C1CC[C@H]1[C@@H]3CC[C@](OC(=O)c4ccc(OCc5ccccc5)cc4)(C(=O)CO)[C@@]3(C)C[C@H](O)[C@@]12F [Example 32, (11beta)-9-fluoro-11,21-dihydroxy-3,20-dioxopregna-1,4-dien-17-yl 4-(benzyloxy)benzoate]",7.44,0.506 nM
